In patent EP2439195B1, “NAPHTHALENE CARBOXAMIDE DERIVATIVES AS INHIBITORS OF PROTEIN KINASE AND HISTONE DEACETYLASE, PREPARATION METHODS AND USES THEREOF” (Shenzhen Chipscreen Biosciences, Ltd., priority 2009, dated 2010):

Experiments:
human PDGFRβ = biological target: T1, human PDGFRβ (Homo sapiens, UniProt P09619); test: PDGF dependent cell proliferation (MTS); format: cell-based; settings: PDGFRβ NIH-3T3 cells, PDGF BB (50ng/ml), 72 hours, serum-free medium; read-out: Gl50 nM (PDGF ligand-dependent cell proliferation)
T1 construct: expressed in transfected cells
Procedure: NIH-3T3 mouse fibroblasts cell line engineered to stably express human PDGFRβ was constructed and used to evaluate PDGF dependent cell proliferation. PDGFRβ NIH-3T3 cells were plated into 96-well plates at 5,000 per well and incubated overnight with serum-free medium after 24 hours. Compounds to be tested and PDGF BB (50ng/ml) were added and incubated for 72 hours in serum-free medium. The effects on proliferation were determined by MTS method (Promega) according to the instruction. Incubation was performed for 2 hours at 37°C in CO2 incubator, and absorbance at 490nm was measured using an ELISA plate reader.

HUVEC cells = test: VEGF dependent cell proliferation (MTS); format: cell-based; settings: Homo sapiens, VEGF 165 (50ng/ml), 72 hours, serum-free medium, read-out: Gl50 nM (VEGF ligand-dependent cell proliferation)
Procedure: HUVEC cells were plated into 96-well plates at 6,000 per well and after 24 hours incubated with serum-free medium for 2 hours. Compounds to be tested and VEGF 165 (50ng/ml) were added and incubated for 72 hours in serum-free medium. The effects on cell proliferation were determined by MTS method (Promega) according to the instruction. Incubation was performed for 2 hours at 37°C in CO2 incubator, and absorbance at 490nm was determined using an ELISA plate reader.

[1] = system: human SSMC7721 liver cancer; test: Nude mice tumor transplanted from human SSMC7721 liver cancer (Example 56); format: in vivo; settings: for TGI (%): tumor growth inhibition
Procedure: Female nu/nu mice of 18∼20g were fed by normal diet for 3 days. Then the cultured SSMC7721 human liver cancer cells were implanted into the armpit of 50 mice. […] Each group had 8 mice. One group was treated with vehicle. One group was treated with Sutent, the positive control drug. Two groups were treated with compound 33 at different concentrations. The other two groups were treated with compound 37 at different concentrations. Each group was dosed orally once a day for 30 days. […] The tumor growth inhibition of each group was calculated using the following formula: {[(the average tumor weight of control group)-(the average tumor weight of test group)]/(the average tumor weight of control group)} × 100%. [formula] The experimental results are shown in Table 10 and Figure 6. Table10

total HDAC enzyme = test: In vitro total HDAC enzyme activity (HDAC Fluorimetric Assay/Drug Discovery Kit, HeLa cell nuclear extract); format: biochemical
Procedure: The in vitro total HDAC enzyme activity was determined by HDAC Fluorimetric Assay/Drug Discovery Kit (BIOMOL) according to manufacture's instruction. The principle of the experiment is as follows: under the action of histone deacetylase (in the experiment, HeLa cell nuclear extract, which was rich in a variety of subtypes of HDAC, was used), an acetyl group is removed from a special substrate Fluor de Lys, thus the free amino is exposed. Upon Developer is added, the substrate will produce fluorescence. For the fluorescence, excitation wavelength is 360nm, and emission wavelength is 460nm. More fully the substrate deacetylated, more higher the fluorescence induced. In the absence of inhibitors, the fluorescence value is taken as the control; when inhibitor is existed, fluorescence value induced will be reduced, while in the case no enzyme is existed (corresponding to the completely inhibition of enzyme activity) the fluorescence value is blank. Generally, after suppression the fluorescence values will be between the control and blank. When analysis is made, blank will be used as 0, and the control will be used as 1. Smaller value means higher inhibitory activity. 1. Add Assay buffer, diluted trichostatin A and test inhibitor to appropriate wells of the microtiter plate. Following table lists the amounts used for each regent of various assay types.
2. Add diluted HeLa nucleoprotein extract to all wells except those that are marked as "blank". 3. Allow diluted Fluor de Lys™ Substrate and the samples in the microtiter plate to equilibrate to 25°C. 4. Initiate HDAC reactions by adding diluted substrate (25 µl) to each well and mixing thoroughly. 5. Allow reactions to proceed for 30 minutes and then stop them by addition of Fluor de Lys™ Developer (50 µl). Incubate plate at room temperature (25°C) for 10-15 min. 6. Read fluorescence of samples on a microtiter-plate reading fluorimeter at a excitation wavelength of 369 nm and a emitted wavelength of 451 nm.

MCF-7 = test: Tumor cell proliferation (MTS), MCF-7; format: cell-based; settings: Homo sapiens, MCF7; MCF-7, 72 hours; read-out: Gl50 µM in MCF-7
Procedure: (§1) Tumor cells were trypsinized and plated into 96-well plates at 3,000 per well and incubated in complete medium with 10% FBS for 24 hours. Compounds to be tested and vehicle control were added, and the final concentration of compound is in the range of 100 nmol/L to 100 µmol/L. The compounds were incubated for 72 hours in complete medium. The MTS reagent (Promega) was added according to the instruction, incubated for 2 hours at 37°C in CO2 incubator. Then absorbance at 490nm is read using an ELISA plate reader.

Bel-7402 = test: Tumor cell proliferation (MTS), Bel-7402; format: cell-based; settings: Homo sapiens; Bel-7402, 72 hours; read-out: Gl50 µM in Bel-7402
Procedure: as §1

human HCT-8 colon cancer = test: Nude mice tumor transplanted from human HCT-8 colon cancer (Example 55); format: in vivo; settings: for TGI (%): tumor growth inhibition
Procedure: Female nu/nu mice of 18∼20g were fed by normal diet for 3 days. Then the cultured HCT-8 human colon cancer cells were implanted into the armpit of 50 mice. […] One group was treated with vehicle. One group was treated with Sutent, the positive control drug. Two groups were treated with compound 33 at different concentrations. The other two groups were treated with compound 37 at different concentrations. Compound 33 was administered twice a day with an interval of 6 hours. For other groups, administration was performed once a day. Each group was dosed orally for 20 days. […] The tumor growth inhibition of each group was calculated using the following formula: {[(the average tumor weight of control group)-(the average tumor weight of test group)]/(the average tumor weight of control group)} × 100%. [formula] The experimental results are shown in Table 9 and Figure 5.

HCT-8 = test: Tumor cell proliferation (MTS), HCT-8; format: cell-based; settings: Homo sapiens; HCT-8, 72 hours; read-out: Gl50 µM in HCT-8
Procedure: as §1

A549 = test: Tumor cell proliferation (MTS), A549; format: cell-based; settings: Homo sapiens; A549, 72 hours; read-out: Gl50 µM in A549
Procedure: as §1

Class I HDAC = test: HDAC subtype selectivity reporter gene assay (P21 reporter, HeLa cells); format: cell-based; settings: Homo sapiens; 10µM; HeLa cells, 24 hours; read-out: Class I HDAC (P21 reporter assay) Fold Induction at 10µM
Procedure: Different HDAC subtypes can bind with different transcriptional factors and involve in expression regulation of various genes. Suitable regulation elements for transcriptional factors are selected to construct reporter genes, which can be used to evaluate the selective inhibition of inhibors on HDAC subtypes. Briefly, HeLa cells were seeded in 96-well plates the day before transfection to give a confluence of 50-80% when transfection. Cells were transfected with one of reporter gene plasmid containing a p21-promoter sequence or response element upstream of a luciferase gene construct using FuGene6 transfection reagent according to the manufacturer's instruction (Roche). For normalizing the transfection efficiency, a GFP expression plasmid was cotransfected. After 24 hours compounds or the vehicle control (DMSO) were added. 24 hours later the cells were harvested and lysed, and the amount of the luciferase was evaluated using luciferase assay kits (Promega) according to the manufacturer's instructions.

A-498 = test: Tumor cell proliferation (MTS), A-498; format: cell-based; settings: Homo sapiens, A498; A-498, 72 hours; read-out: Gl50 µM in A-498
Procedure: as §1

[2] = 30 mg/kg orally once a day for 30 days
[3] = 60 mg/kg orally once a day for 30 days
[4] = 30 mg/kg orally once a day for 20 days
[5] = 60 mg/kg orally once a day for 20 days

T1 sequence (P09619 33-1106): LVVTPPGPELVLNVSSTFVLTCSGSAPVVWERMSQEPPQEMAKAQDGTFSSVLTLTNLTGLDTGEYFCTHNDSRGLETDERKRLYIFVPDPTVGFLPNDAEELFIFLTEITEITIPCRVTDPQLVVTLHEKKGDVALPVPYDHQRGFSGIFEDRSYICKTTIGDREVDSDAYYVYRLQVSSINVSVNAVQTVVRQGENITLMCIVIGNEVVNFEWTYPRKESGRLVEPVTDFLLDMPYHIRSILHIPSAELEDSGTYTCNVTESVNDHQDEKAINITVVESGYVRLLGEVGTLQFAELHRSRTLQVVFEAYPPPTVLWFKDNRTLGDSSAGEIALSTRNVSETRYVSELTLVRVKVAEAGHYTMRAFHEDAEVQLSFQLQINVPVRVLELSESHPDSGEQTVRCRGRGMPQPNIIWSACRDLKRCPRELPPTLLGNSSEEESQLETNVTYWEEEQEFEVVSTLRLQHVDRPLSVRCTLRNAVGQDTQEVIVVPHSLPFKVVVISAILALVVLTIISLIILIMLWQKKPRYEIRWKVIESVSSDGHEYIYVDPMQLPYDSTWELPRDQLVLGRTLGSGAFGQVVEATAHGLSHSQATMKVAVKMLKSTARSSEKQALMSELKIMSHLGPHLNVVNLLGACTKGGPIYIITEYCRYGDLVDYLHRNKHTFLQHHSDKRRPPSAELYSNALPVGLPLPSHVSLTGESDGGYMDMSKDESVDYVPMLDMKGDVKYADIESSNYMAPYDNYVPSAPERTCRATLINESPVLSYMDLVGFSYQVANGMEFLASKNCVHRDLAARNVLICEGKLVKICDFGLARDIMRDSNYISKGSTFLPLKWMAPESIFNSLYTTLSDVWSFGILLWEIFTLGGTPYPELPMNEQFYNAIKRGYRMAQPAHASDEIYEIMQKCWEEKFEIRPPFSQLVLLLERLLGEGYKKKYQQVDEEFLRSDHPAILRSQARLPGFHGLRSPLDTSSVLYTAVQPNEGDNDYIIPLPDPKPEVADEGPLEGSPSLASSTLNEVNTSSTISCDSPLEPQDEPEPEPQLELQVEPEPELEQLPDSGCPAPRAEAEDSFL

**Q.** For `COc1cc2nccc(Oc3ccc4c(C(=O)NCc5ccc(C(=O)Nc6ccccc6N)cc5)cccc4c3)c2cc1OC` [Compound 37, N-(4-((2-aminophenyl)carbamoyl)benzyl)-6-(6,7-dimethoxyquinolin-4-yloxy)-1-naphthamide], which IC50 (human PDGFRβ) is on record?
**A.** 0.159 µM

**Q.** What about the IC50 (HUVEC cells) of the same compound?
**A.** 0.004 µM

**Q.** And the “Tumor weight” value [1, 2]?
**A.** 1.45 ± 0.58 g

**Q.** And the “Body weight (g) end” value [1, 2]?
**A.** 25.3 ± 0.9 g

**Q.** And the “Body weight (g) start” value [1, 2]?
**A.** 20.7 ± 1.2 g

**Q.** What about the “TGI (%)” value [1, 2] of the same compound?
**A.** 35.6%

**Q.** What about the “Tumor weight” value [1, 3] of the same compound?
**A.** 1.28 ± 0.51 g

**Q.** And the “Body weight (g) end” value [1, 3]?
**A.** 24.3 ± 1.1 g

**Q.** What about the “Body weight (g) start” value [1, 3] of the same compound?
**A.** 21.4 ± 0.6 g

**Q.** And the “TGI (%)” value [1, 3]?
**A.** 43.3%

**Q.** And the “% inhibition of total HDAC enzyme activity at 30µM” value (total HDAC enzyme)?
**A.** 35.9%

**Q.** What about the IC50 (MCF-7) of the same compound?
**A.** 30 µM

**Q.** What about the IC50 (Bel-7402) of the same compound?
**A.** 30 µM

**Q.** And the “Tumor weight” value (human HCT-8 colon cancer; [4])?
**A.** 3.89 ± 1.19 g

**Q.** What about the “Body weight (g) end” value (human HCT-8 colon cancer; [4]) of the same compound?
**A.** 23.6 ± 2.2 g

**Q.** And the “Body weight (g) start” value (human HCT-8 colon cancer; [4])?
**A.** 20.6 ± 0.8 g

**Q.** What about the “TGI (%)” value (human HCT-8 colon cancer; [4]) of the same compound?
**A.** 36.5%

**Q.** What about the “Tumor weight” value (human HCT-8 colon cancer; [5]) of the same compound?
**A.** 3.36 ± 0.80 g

**Q.** And the “Body weight (g) end” value (human HCT-8 colon cancer; [5])?
**A.** 24.1 ± 2.1 g

**Q.** What about the “Body weight (g) start” value (human HCT-8 colon cancer; [5]) of the same compound?
**A.** 20.8 ± 0.8 g

**Q.** What about the “TGI (%)” value (human HCT-8 colon cancer; [5]) of the same compound?
**A.** 45.1%

**Q.** What about the IC50 (HCT-8) of the same compound?
**A.** 30 µM

**Q.** What about the IC50 (A549) of the same compound?
**A.** 30 µM

**Q.** And the fold induction at 10 µM (Class I HDAC)?
**A.** 3

**Q.** What about the IC50 (A-498) of the same compound?
**A.** 30 µM
